In one experiment the test system is Omicron XBB.1.5 spike. The class given is cell-based, SARS-CoV-2.
The test system of experiment [1] is SARS-CoV-2 Omicron BA.1 variant. Particulars: 48 h.

Bridges are numbered along the chain shown (N, C = ends).

What is called IC50 is the point on the concentration scale where inhibition reaches its midpoint.

Turning to “VAACNLPIVRGPCRAFIQLWAFDAVKGKCVLFPYGGCQGNGNKFYSEKECREYCGVPGDGD (disulfide 4-54, 13-37, 29-50) [Trypstatin]”, in the experiment with Omicron XBB.1.5 spike, the “activity against Omicron XBB.1.5 variant in a pseudoparticle assay” value is “verified activity”. In experiment [1], the IC50 was 0.12 µM.

(Values after patent publication EP4545091A1 (priority 2023, dated 2025).)
